Reference: patent publication US20250051347A1, “BIFUNCTIONAL CHIMERIC HETEROCYCLIC COMPOUND AND USE THEREOF AS ANDROGEN RECEPTOR DEGRADER” (Hinova Pharmaceuticals, Inc., priority 2021, published 2025)
Like-named read-outs stand apart in the source and are kept apart here.

Columns and labels:
[1] = target: T1, androgen receptor (AR) splicing variant AR-v7 (Homo sapiens, UniProt P10275); experiment: Degradation activity on androgen receptor splicing variant AR-v7 in 22RV1 cells (ELISA); type: cell-based; conditions: AR-v7 degradation in 22RV1 cells, 48 h
T1 construct: The degradation activity of compounds on AR-v7 in 22RV1 cells; host or cells: 22RV1 cells
T1 sequence (P10275 1-644 isoform P10275-3): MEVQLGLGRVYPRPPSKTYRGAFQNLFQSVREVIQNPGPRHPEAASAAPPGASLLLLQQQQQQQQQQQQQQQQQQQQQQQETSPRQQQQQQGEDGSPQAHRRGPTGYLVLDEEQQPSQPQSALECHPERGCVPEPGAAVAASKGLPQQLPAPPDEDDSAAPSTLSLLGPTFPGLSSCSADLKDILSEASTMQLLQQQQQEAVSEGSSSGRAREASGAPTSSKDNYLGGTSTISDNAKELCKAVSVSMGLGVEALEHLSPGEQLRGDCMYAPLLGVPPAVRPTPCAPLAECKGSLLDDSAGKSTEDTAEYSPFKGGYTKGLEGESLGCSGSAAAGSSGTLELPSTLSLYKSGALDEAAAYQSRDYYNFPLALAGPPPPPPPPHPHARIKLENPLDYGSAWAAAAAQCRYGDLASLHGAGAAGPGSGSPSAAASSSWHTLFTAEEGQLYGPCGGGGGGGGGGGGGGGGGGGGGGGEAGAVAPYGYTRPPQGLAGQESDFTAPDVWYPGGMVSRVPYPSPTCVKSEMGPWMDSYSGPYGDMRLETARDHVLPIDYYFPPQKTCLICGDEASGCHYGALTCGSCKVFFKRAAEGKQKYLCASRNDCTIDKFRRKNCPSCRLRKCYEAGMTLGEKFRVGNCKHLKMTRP

[2] = Pharmacokinetics in mice (plasma exposure after oral administration); type: in vivo; conditions: ICR mice, oral (i.g.) 3 mg/kg; for AUC(0-inf): mouse, read-out: After oral administration of 3 mg/kg, mouse plasma exposure AUCinf
Procedure: • LC-20AD high performance liquid chromatography (SHIMADZU, Japan) • API4000 triple quadrupole mass spectrometer (Applied Biosystem, USA) • Phenix Winnolin Pharmacokinetic software (Version 6.3, Certara, USA) • High speed freezing centrifuge (Thermo Fisher Scientific) • Analytical balance (Sartorius, SECURA225D-ICN) • ICR mice (Chengdu Dossy Experimental Animals CO., LTD.)
A suitable amount of drug was accurately weighed, and then the medium (5% DMSO, 15% HS-15, 80% DSW) was added to prepare the solution at a concentration of 0.1 mg/ml (i.v.) and 0.3 mg/ml (i.g.).
18 healthy adult ICR mice were divided into two groups (9 mice for i.v. group; 9 mice for i.g. group), and administered by tail vein or by gavage after fasting overnight (free drinking water); using the satellite blood collection method, 3 animals were collected at each time point, and then 0.1 ml of blood obtained at different time points was anticoagulated with EDTA-K2, centrifuged at 4° C. for 5 min to separate the plasma, and stored at −80° C. for detection. The sampling time points after i.v. administration were 5 min, 15 min, 0.5 h, 1 h, 2 h, 4 h, 8 h, 12 h, and 24 h; while the sampling time points for i.g. group were before administration (0 h) as well as 0.5 h, 1 h, 2 h, 4 h, 6 h, 8 h, 12 h, and 24 h after administration. Then, the drug concentration in plasma was determined by LC/MS/MS.

[3] = Homo sapiens, 22Rv1, 144 h, read-out: 22RV1 IC50 (nM), 22RV1 cells, 6 days culture, CCK-8, OD 450 nm

| DC50 ([1]; class symbols) | AUC(0-inf) [2] | IC50 (22RV1 cells; [3]) | IC50 (22RV1 cells; read-out: 22RV1 IC50, 22RV1 cells, 6 days culture, CCK-8, OD 450 nm) | After oral administration of 3 mg/kg, mouse plasma exposure AUCinf (μg*h/mL) [2] | DC50 ([1]; numeric values) | Compound |
| --- | --- | --- | --- | --- | --- | --- |
| < 10 nM | 1000 to 5000 ng·h/mL | 4 nM | – | – | – | CC(C)(c1ccc(Oc2ccc(-n3nccn3)nc2)cc1)c1ccc(O[C@H]2C[C@H](Nc3ccc4c(c3)CN(C3CCC(=O)NC3=O)C4=O)C2)cc1 (some centres unmarked) [Example 94] |
| < 10 nM | 5000 to 30000 ng·h/mL | 15 nM | – | – | – | CC(C)(c1ccc(Oc2cnc(C#N)nc2)cc1)c1ccc(O[C@H]2C[C@H](Nc3ccc4c(c3)C(=O)N(C3CCC(=O)NC3=O)C4=O)C2)cc1 (some centres unmarked) [Example 97, 5-(4-(2-(4-((1r,3r)-3-((2-(2,6-dioxopiperidin-3-yl)-1,3-dioxoisoindolin-5-yl)amino)cyclobutyloxy)phenyl)propan-2-yl)phenoxy)pyrimidin-2-carbonitrile] |
| < 10 nM | 100 to 1000 ng·h/mL | 4 nM | – | – | – | CC(C)(c1ccc(Oc2ccc(C#N)nn2)cc1)c1ccc(O[C@H]2C[C@H](Nc3ccc4c(c3)C(=O)N(C3CCC(=O)NC3=O)C4=O)C2)cc1 (some centres unmarked) [Example 98, 6-(4-(2-(4-((1r,3r)-3-((2-(2,6-dioxopiperidin-3-yl)-1,3-dioxoisoindolin-5-yl)amino)cyclobutyloxy)phenyl)propan-2-yl)phenoxy) pyridazine-3-carbonitrile] |
| < 10 nM | 5000 to 30000 ng·h/mL | – | 17 nM | – | – | Cc1nc(-c2ncc(Oc3ccc(C(C)c4ccc(O[C@H]5C[C@H](Nc6ccc7c(c6)C(=O)N(C6CCC(=O)NC6=O)C7=O)C5)cc4)cc3)cn2)no1 (some centres unmarked) [Example 99] |
| < 10 nM | 5000 to 30000 ng·h/mL | 3 nM | – | – | – | CC(=O)c1nccc(COc2ccc(C(C)(C)c3ccc(O[C@H]4C[C@H](Nc5ccc6c(c5)C(=O)N(C5CCC(=O)NC5=O)C6=O)C4)cc3)cc2)n1 (stereo partly drawn) [Example 110, 5-(((trans)-3-(4-(2-(4-((2-acetylpyrimidin-4-yl)methoxy)phenyl)propan-2-yl)phenoxy)cyclobutyl)amino)-2-(2,6-dioxopiperidin-3-yl)isoindolin-1,3-dione] |
| – | – | 3 nM | – | A (30-5 μg*h/mL) | – | CC(O)c1ncc(Oc2ccc(C(C)(C)c3ccc(O[C@H]4C[C@H](Nc5ccc6c(c5)C(=O)N(C5CCC(=O)NC5=O)C6=O)C4)cc3)cc2)cn1 (some centres unmarked) [Example 118] |
| < 10 nM | 5000 to 30000 ng·h/mL | 2 nM | – | – | – | CC(=O)c1ncc(Oc2ccc(C(C)(C)c3ccc(O[C@H]4C[C@H](Nc5ccc6c(c5)C(=O)N(C5CCC(=O)NC5=O)C6=O)C4)cc3)cc2)cn1 (stereo partly drawn) [Example 119, 5-(((trans)-3-(4-(2-(4-((2-acetylpyrimidin-5-yl)oxy)phenyl)propan-2-yl)phenoxy)cyclobutyl)amino)-2-(2,6-dioxopiperidin-3-yl) isoindolin-1,3-dione] |
| < 10 nM | 5000 to 30000 ng·h/mL | 10 nM | – | – | – | CC(O)c1ccc(Oc2ccc(C(C)(C)c3ccc(O[C@H]4C[C@H](Nc5ccc6c(c5)C(=O)N(C5CCC(=O)NC5=O)C6=O)C4)cc3)cc2)nn1 (some centres unmarked) [Example 125] |
| < 10 nM | 5000 to 30000 ng·h/mL | 6 nM | – | – | – | CC(=O)c1ccc(Oc2ccc(C(C)(C)c3ccc(O[C@H]4C[C@H](Nc5ccc6c(c5)C(=O)N(C5CCC(=O)NC5=O)C6=O)C4)cc3)cc2)nn1 (stereo partly drawn) [Example 126, 5-(((trans)-3-(4-(2-(4-((6-acetylpyridazine-3-yl)oxy)phenyl)propan-2-yl)phenoxy)cyclobutyl)amino)-2-(2,6-dioxopiperidin-3-yl)isoindolin-1,3-dione] |
| < 10 nM | 5000 to 30000 ng·h/mL | 6 nM | – | – | – | Cc1nc(-c2ccnc(Oc3ccc(C(C)(C)c4ccc(O[C@H]5C[C@H](Nc6ccc7c(c6)C(=O)N(C6CCC(=O)NC6=O)C7=O)C5)cc4)cc3)n2)no1 (some centres unmarked) [Example 166] |
| 11 to 100 nM | 5000 to 30000 ng·h/mL | – | – | – | – | O=C1CCC(N2C(=O)c3ccc(N[C@H]4C[C@H](Oc5ccc(Cc6ccc(Oc7cnc(-n8ccnn8)nc7)cc6)cc5)C4)cc3C2=O)C(=O)N1 (some centres unmarked) [Example 521] |
| – | 5000 to 30000 ng·h/mL | – | – | – | > 10000 nM | CC(=O)c1nccc(COc2ccc(C(C)(C)c3ccc(OC4CN(c5ccc6c(c5)C(=O)N(C5CCC(=O)NC5=O)C6=O)C4)cc3)cc2)n1 (centres unmarked) [Example 558] |
| 11 to 100 nM | 1000 to 5000 ng·h/mL | – | – | – | – | Cc1noc(-c2ccc(Oc3ccc(C(C)(C)c4ccc(O[C@H]5C[C@H](Nc6ccc7c(c6)C(=O)N(C6CCC(=O)NC6=O)C7=O)C5)cc4)cc3)cn2)n1 (some centres unmarked) [Example 582] |
| 11 to 100 nM | 5000 to 30000 ng·h/mL | – | – | – | – | Cc1nsc(Oc2ccc(C(C)(C)c3ccc(O[C@H]4C[C@H](Nc5ccc6c(c5)C(=O)N(C5CCC(=O)NC5=O)C6=O)C4)cc3)cc2)n1 (some centres unmarked) [Example 591, 2-(2,6-dioxopiperidin-3-yl)-5-((1r,3r)-3-(4-(2-(4-((3-methyl-1,2,4-thiadiazol-5-yl)oxy)phenyl)propan-2-yl)phenoxy)cyclobutyl)aminoisoindolin-1,3-dione] |
| 11 to 100 nM | 5000 to 30000 ng·h/mL | – | – | – | – | Cc1nnc(-c2nnc(Oc3ccc(C(C)(C)c4ccc(O[C@H]5C[C@H](Nc6ccc7c(c6)C(=O)N(C6CCC(=O)NC6=O)C7=O)C5)cc4)cc3)s2)o1 (some centres unmarked) [Example 593] |
| 11 to 100 nM | 5000 to 30000 ng·h/mL | – | – | – | – | Cc1nc(-c2cnc(Oc3ccc(C(C)(C)c4ccc(O[C@H]5C[C@@H](Nc6ccc7c(c6)C(=O)N(C6CCC(=O)NC6=O)C7=O)C5)cc4)cc3)cn2)no1 (some centres unmarked) [Example 598, 2-(2,6-dioxopiperidin-3-yl)-5-(((1s,3s)-3-(4-(2-(4-((5-(5-methyl-1,2,4-oxadiazol-3-yl)pyrazin-2-yl)oxy)phenyl)propan-2-yl)phenoxy)cyclobutyl)amino)isoindolin-1,3-dione] |
| 11 to 100 nM | 5000 to 30000 ng·h/mL | – | – | – | – | Cc1nc(-c2cncc(Oc3ccc(C(C)(C)c4ccc(O[C@H]5C[C@@H](Nc6ccc7c(c6)C(=O)N(C6CCC(=O)NC6=O)C7=O)C5)cc4)cc3)n2)no1 (some centres unmarked) [Example 599] |

| Compound | DC50 ([1]; class symbols) | AUC(0-inf) [2] | IC50 (22RV1 cells; [3]) | IC50 (22RV1 cells; read-out: 22RV1 IC50, 22RV1 cells, 6 days culture, CCK-8, OD 450 nm) | After oral administration of 3 mg/kg, mouse plasma exposure AUCinf (μg*h/mL) [2] | DC50 ([1]; numeric values) |
| --- | --- | --- | --- | --- | --- | --- |
| CC(C)(c1ccc(OCc2ccnc(N3CC4(COC4)C3)n2)cc1)c1ccc(O[C@H]2C[C@H](Nc3ccc4c(c3)C(=O)N(C3CCC(=O)NC3=O)C4=O)C2)cc1 (some centres unmarked) [Example 75] | < 10 nM | 5000 to 30000 ng·h/mL | 8 nM | – | – | – |
| CC(C)(c1ccc(OCc2ccnc(N3CC4(COC4)C3)n2)cc1)c1ccc(O[C@H]2C[C@@H](Nc3ccc4c(c3)C(=O)N(C3CCC(=O)NC3=O)C4=O)C2)cc1 (some centres unmarked) [Example 76, 5-(((1s,3s)-3-(4-(2-(4-((2-(2-oxa-6-azaspiro[3.3]heptane-6-yl)pyrimidin-4-yl)methoxy)phenyl)propan-2-yl)phenoxy)cyclobutyl)amino)-2-(2,6-dioxopiperidin-3-yl)isoindolin-1,3-dione] | < 10 nM | 1000 to 5000 ng·h/mL | 11 nM | – | – | – |
| CC(C)(c1ccc(OCc2ccnc(N3CC4(COC4)C3)n2)cc1)c1ccc(N2CC(Nc3ccc4c(c3)C(=O)N(C3CCC(=O)NC3=O)C4=O)C2)cc1 (centres unmarked) [Example 154] | < 10 nM | 1000 to 5000 ng·h/mL | 7 nM | – | – | – |
| CC(C)(c1ccc(OCc2ccnc(N3CC4(COC4)C3)n2)cc1)c1ccc(C(=O)NCCNc2ccc3c(c2)C(=O)N(C2CCC(=O)NC2=O)C3=O)cc1 (centres unmarked) [Example 501] | 11 to 100 nM | 1000 to 5000 ng·h/mL | – | – | – | – |
| CC(C)(c1ccc(OCc2ccnc(N3CC4(COC4)C3)n2)cc1)c1ccc(C(=O)Nc2ccc3c(c2)C(=O)N(C2CCC(=O)NC2=O)C3=O)cc1 (centres unmarked) [Example 504, 4-(2-(4-((2-(2-oxa-6-azaspiro[3.3]heptan-6-yl)pyrimidin-4-yl)methoxy)phenyl)propan-2-yl)-N-(2-(2,6-dioxopiperidin-3-yl)-1,3-dioxoisoindolin-5-yl)benzamide] | 101 to 1000 nM | 100 to 1000 ng·h/mL | – | – | – | – |
